According to PubChem BioAssay AID256 (DTP/NCI, 2004):
Inconclusive results and toxic doses are left out. The calls were made as follows: active = survival T/C of 150% or more; inactive = T/C below 125% in these data.

Test system: CD2F1 mice, L1210 leukemia ip, survival T/C
Assay: NCI In Vivo Anticancer Drug Screen. Data for tumor model L1210 Leukemia (intraperitoneal) in CD2F1 (CDF1) mice
Conditions: higher = longer survival
Summary of the method: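 Vehicle-treated tumor-bearing mice served as controls (C) for compound-treated mice (T). Reported figure is T divided by C.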

[1] = endpoint: mean survival time, dose: 100.0 mg/kg/injection, schedule: Q01DX009 (ip), vehicle: saline with Tween-80
[2] = endpoint: mean survival time, dose: 200.0 mg/kg/injection, schedule: Q01DX009 (ip), vehicle: saline with Tween-80
[3] = endpoint: mean survival time, dose: 100.0 mg/kg/injection, schedule: Q01DX001 (ip), vehicle: saline with Tween-80
[4] = endpoint: mean survival time, dose: 200.0 mg/kg/injection, schedule: Q01DX001 (ip), vehicle: saline with Tween-80
[5] = endpoint: mean survival time, dose: 400.0 mg/kg/injection, schedule: Q01DX001 (ip), vehicle: saline with Tween-80
[6] = endpoint: mean survival time, dose: 100.0 mg/kg/injection, schedule: Q04DX003 (ip), vehicle: saline with Tween-80
[7] = endpoint: mean survival time, dose: 200.0 mg/kg/injection, schedule: Q04DX003 (ip), vehicle: saline with Tween-80
[8] = endpoint: mean survival time, dose: 400.0 mg/kg/injection, schedule: Q04DX003 (ip), vehicle: saline with Tween-80
[9] = endpoint: mean survival time, dose: 100.0 mg/kg/injection, schedule: Q04DX002 (ip), vehicle: saline with Tween-80
[10] = endpoint: mean survival time, dose: 200.0 mg/kg/injection, schedule: Q04DX002 (ip), vehicle: saline with Tween-80
[11] = endpoint: mean survival time, dose: 400.0 mg/kg/injection, schedule: Q04DX002 (ip), vehicle: saline with Tween-80

Measured: T/C

CSc1nn(C2OC(COC(=O)c3ccccc3)C(OC(=O)c3ccccc3)C2OC(=O)c2ccccc2)c(=O)[nH]c1=O (stereo unspecified)
inactive: endpoint: mean survival time, dose: 12.5 mg/kg/injection, schedule: Q01DX005 (ip), vehicle: distilled water + Tween-80 98 % of control | endpoint: mean survival time, dose: 25.0 mg/kg/injection, schedule: Q01DX005 (ip), vehicle: distilled water + Tween-80 93 % of control | endpoint: mean survival time, dose: 50.0 mg/kg/injection, schedule: Q01DX005 (ip), vehicle: distilled water + Tween-80 97 % of control | endpoint: mean survival time, dose: 100.0 mg/kg/injection, schedule: Q01DX005 (ip), vehicle: distilled water + Tween-80 93 % of control | endpoint: mean survival time, dose: 200.0 mg/kg/injection, schedule: Q01DX005 (ip), vehicle: distilled water + Tween-80 95 % of control

Cc1cc(NCCCN(C)C)c2ccc3c(ccc4c(NCCCN(C)C)cc(C)nc43)c2n1
inactive: endpoint: median survival time, dose: 0.38 mg/kg/injection, schedule: Q01DX009 (ip), vehicle: saline 95 % of control | endpoint: median survival time, dose: 0.75 mg/kg/injection, schedule: Q01DX009 (ip), vehicle: saline 93 % of control | endpoint: median survival time, dose: 1.5 mg/kg/injection, schedule: Q01DX009 (ip), vehicle: saline 113 % of control | endpoint: median survival time, dose: 3.0 mg/kg/injection, schedule: Q01DX009 (ip), vehicle: saline 110 % of control

O=C(O)C(Cc1ccc(O)cc1)c1ccccc1 (stereo unspecified)
inactive: [1] 103 % of control | [2] 101 % of control | endpoint: mean survival time, dose: 400.0 mg/kg/injection, schedule: Q01DX009 (ip), vehicle: saline with Tween-80 95 % of control

CC(=O)OC1C=CC(OC(C)=O)O1 (stereo unspecified)
inactive: endpoint: mean survival time, dose: 0.75 mg/kg/injection, schedule: Q01DX009 (ip), vehicle: saline with Tween-80 103 % of control | endpoint: mean survival time, dose: 1.5 mg/kg/injection, schedule: Q01DX009 (ip), vehicle: saline with Tween-80 101 % of control | endpoint: mean survival time, dose: 1.88 mg/kg/injection, schedule: Q04DX003 (ip), vehicle: saline 96 % of control | endpoint: mean survival time, dose: 3.0 mg/kg/injection, schedule: Q01DX009 (ip), vehicle: saline with Tween-80 95 % of control | endpoint: mean survival time, dose: 3.75 mg/kg/injection, schedule: Q04DX003 (ip), vehicle: saline 98 % of control | endpoint: mean survival time, dose: 7.5 mg/kg/injection, schedule: Q01DX001 (ip), vehicle: saline 106 % of control | endpoint: mean survival time, dose: 7.5 mg/kg/injection, schedule: Q04DX003 (ip), vehicle: saline 102 % of control

CC1OC(n2cc(Cl)c(=O)[nH]c2=O)C2OC(C)(C)OC2C1=O (stereo unspecified)
inactive: endpoint: median survival time, dose: 25.0 mg/kg/injection, schedule: Q01DX005 (ip), vehicle: Klucel (hydroxypropylcellulose) (HPC) 102 % of control | endpoint: median survival time, dose: 50.0 mg/kg/injection, schedule: Q01DX005 (ip), vehicle: Klucel (hydroxypropylcellulose) (HPC) 100 % of control | endpoint: median survival time, dose: 100.0 mg/kg/injection, schedule: Q01DX005 (ip), vehicle: Klucel (hydroxypropylcellulose) (HPC) 102 % of control | endpoint: median survival time, dose: 200.0 mg/kg/injection, schedule: Q01DX005 (ip), vehicle: Klucel (hydroxypropylcellulose) (HPC) 107 % of control

CC/C=C(\C)C=O
inactive: endpoint: mean survival time, dose: 100.0 mg/kg/injection, schedule: Q01DX001 (ip), vehicle: saline 100 % of control | endpoint: mean survival time, dose: 200.0 mg/kg/injection, schedule: Q01DX001 (ip), vehicle: saline 97 % of control | endpoint: mean survival time, dose: 400.0 mg/kg/injection, schedule: Q01DX001 (ip), vehicle: saline 97 % of control

N=C(Oc1ccccc1)C(Cl)(Cl)Cl
inactive: endpoint: mean survival time, dose: 50.0 mg/kg/injection, schedule: Q01DX009 (ip), vehicle: saline with Tween-80 90 % of control | [1] 95 % of control | [2] 98 % of control

[NH-]S(=O)(=O)O.[NH-]S(=O)(=O)O.[NH2-].[NH2-].[Pt+4]
inactive: endpoint: mean survival time, dose: 10.0 mg/kg/injection, schedule: Q04DX003 (ip), vehicle: saline with Tween-80 95 % of control | endpoint: mean survival time, dose: 20.0 mg/kg/injection, schedule: Q04DX003 (ip), vehicle: saline with Tween-80 97 % of control | endpoint: mean survival time, dose: 40.0 mg/kg/injection, schedule: Q04DX003 (ip), vehicle: saline with Tween-80 97 % of control

CCCCCCCCCCCCCCCCCOc1c(I)cc(I)cc1I
inactive: [3] 86 % of control | [4] 94 % of control | [5] 91 % of control

O=[N+]([O-])c1cc(I)c(I)c(I)c1
inactive: [6] 98 % of control | [7] 104 % of control | [8] 98 % of control

CC[P+](C)(CC)c1cccc(OC(=O)NC)c1
inactive: endpoint: mean survival time, dose: 0.05 mg/kg/injection, schedule: Q01DX001 (ip), vehicle: saline 96 % of control | endpoint: mean survival time, dose: 0.1 mg/kg/injection, schedule: Q01DX001 (ip), vehicle: saline 102 % of control | endpoint: mean survival time, dose: 0.2 mg/kg/injection, schedule: Q01DX001 (ip), vehicle: saline 104 % of control

CC(=O)NC1CCCC(O)C1 (stereo unspecified)
inactive: endpoint: mean survival time, dose: 100.0 mg/kg/injection, schedule: Q04DX003 (ip), vehicle: saline 102 % of control | endpoint: mean survival time, dose: 200.0 mg/kg/injection, schedule: Q04DX003 (ip), vehicle: saline 95 % of control | endpoint: mean survival time, dose: 400.0 mg/kg/injection, schedule: Q04DX003 (ip), vehicle: saline 101 % of control

COc1ccccc1N1C(=O)CSC1=S
inactive: [6] 96 % of control | [7] 93 % of control | [8] 106 % of control

CC1=CC(=O)C(CCC(=O)O)C(C)(C)C1 (stereo unspecified)
inactive: [9] 91 % of control | [10] 94 % of control | [11] 94 % of control

O=C(Cc1ccccn1)Cc1ccccn1
inactive: [3] 106 % of control | [9] 100 % of control | [4] 96 % of control | [10] 100 % of control | [5] 106 % of control | [11] 104 % of control
